One test has as its target Sigma 2 receptor. Description: Binding affinity against sigma-2 receptor in rat liver using radioligand [3H]DTG in the presence of dextrallorphan.
For test [1], the target named is Muscarinic acetylcholine receptor. The test is described as follows: Binding affinity against muscarinic receptor in rat brain membranes using radioligand [H}QNB. The class given is cell membranes.
A further test deals with D(2) dopamine receptor (Rattus norvegicus, UniProt P61169). The test is described as follows: Binding affinity against D-2 dopamine receptor in rat brain membranes using [3H](-)-sulpiride as radioligand. The class given is cell membranes.
Chain of D(2) dopamine receptor (P61169 whole entry): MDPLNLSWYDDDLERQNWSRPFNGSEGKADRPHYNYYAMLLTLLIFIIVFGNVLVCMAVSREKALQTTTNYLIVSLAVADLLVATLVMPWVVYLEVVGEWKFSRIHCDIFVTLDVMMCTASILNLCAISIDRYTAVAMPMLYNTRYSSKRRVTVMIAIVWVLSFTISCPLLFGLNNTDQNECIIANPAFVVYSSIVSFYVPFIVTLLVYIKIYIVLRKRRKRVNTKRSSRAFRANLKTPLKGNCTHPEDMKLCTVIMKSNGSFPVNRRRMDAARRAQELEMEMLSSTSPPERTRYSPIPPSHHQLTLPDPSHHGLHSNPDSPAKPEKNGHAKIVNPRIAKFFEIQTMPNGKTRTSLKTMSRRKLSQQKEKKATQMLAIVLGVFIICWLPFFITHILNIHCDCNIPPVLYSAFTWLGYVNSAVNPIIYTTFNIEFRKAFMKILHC
In a further test the target is Glutamate NMDA receptor. The test is described as follows: Binding affinity against phencyclidine receptor in rat brain membranes using radioligand [3H]TCP. It is filed as cell membranes.

A word on the Ki: it is the dissociation constant of the complex between target and ligand, obtained from inhibition or displacement. As to `O=C(NC1CCN(Cc2ccccc2)CC1)c1ccccc1I`, the Ki on Sigma 2 receptor is 29.6 nM; in test [1], above 100000 nM; on D(2) dopamine receptor it was 63.4 nM; at Glutamate NMDA receptor, above 100000 nM.
Regarding `O=C(NC1CCN(Cc2ccccc2)CC1)c1ccc(I)cc1`, the Ki on Sigma 2 receptor was 25.2 nM; in test [1], above 100000 nM; on D(2) dopamine receptor it was 382 nM; on Glutamate NMDA receptor it was above 100000 nM.
Regarding `O=C(NC1CCN(Cc2ccccc2)CC1)c1cccc(I)c1`, the Ki was 84.6 nM at Sigma 2 receptor, above 100000 nM in test [1], 24.8 nM on D(2) dopamine receptor and above 100000 nM at Glutamate NMDA receptor.

The values are drawn from ChEMBL document CHEMBL1127537, “Synthesis and characterization of [125I]-N-(N-benzylpiperidin-4-yl)-4- iodobenzamide, a new sigma receptor radiopharmaceutical: high-affinity binding to MCF-7 breast tumor cells” (J Med Chem, 1994).
